Measured values published in US20210177952A1, “METHOD AND COMPOSITION FOR STIMULATING IMMUNE RESPONSE” (BeyondSpring Pharmaceuticals, Inc., priority 2018, published 2021).

System: CD14^+ dendritic cells
Experiment: FACS evaluation of dendritic cell maturation markers CD40, CD80, MHCII and CD86
Format: cell-based, Human
Description: ISOLATION OF CD14^+ MONOCYTES FROM PBMCs: On Day 1 of the study, PBMC cells were obtained from a human donor according to (1a)-(1d) above. Monocytes were then isolated from these PBMCs on the same day (Day 1) according to steps (2a)-(2k) as follows: (2a) The number of the PBMC cells was determined. (2b) The cell suspension was centrifuged at 300×g for 10 minutes; and the supernatant was aspirated completely. (2c) The cell pellet was re-suspended in 80 μL of FACS buffer per 10^7 total cells. (2d) Per 10^7 total cells, 20 μL of CD14 MicroBeads were added. (2e) Mix well and incubate for 15 minutes in the refrigerator (2 to 8° C.). (2f) The cells were washed by adding 1 to 2 mL of FACS buffer per 10^7 cells and centrifuged at ×1500 rpm for 10 min. (2g) The cells were re-suspended up to 10^8 cells in 500 μL of FACS buffer. (2h) The column was placed in magnetic field of a suitable MACS Separator. (2i) The column was prepared by rinsing with 3 mL of FACS buffer. (2j) The cell suspension was applied onto the column. Unlabeled cells that pass through were collected and the column was washed for three times each with 3 mL of FACS buffer. Total effluent, which was the unlabeled cell fraction, was collected. Washing steps were performed by adding FACS buffer three times. New buffer was added only when the column reservoir became empty. (2k) The column was then removed from the separator and placed on a suitable collection tube. 5 mL of FACS buffer was pipetted onto the column. The magnetically labeled cells were immediately flushed out by firmly pushing the plunger into the column. This fraction represented the CD14 positive monocytes.
DIFFERENTIATION OF MONOCYTES INTO CD14^+ DENDRITIC CELLS: From the CD14 positive monocytes obtained from (2k), dendritic cells (DCs) were differentiated according to steps (2l)-(2p) as follows: (21) 5×10^6 cells were re-suspended per 5 mL of ImmunoCult™ DC Differentiation Medium and mixed well. Then 5 mL of the cell suspension was added to a T-25 cm^2 flask and the cells were incubated for 3 days at 37° C. and 5% CO2. (2m) Meanwhile, in parallel, the monocytes were treated with 3, 1, 0.3, 0.1, 0.01 and 0 μM plinabulin, respectively, in the wells of a 6-well plate and incubated for 3 days. (2n) On Day 4, the medium was removed from the T-25 cm^2 flask by pipetting and added to a 14-mL centrifuge tube. 5 mL of fresh ImmunoCult™ DC Differentiation Medium was quickly added to the culture flask. (2o) The 14 mL tube containing medium and cells (from step (2n)) was centrifuged at 300×g for 10 min. The supernatant was removed and discarded. Cells were resuspended in a small volume (i.e. 50 μL or up to 10% of the original volume) of fresh ImmunoCult™ DC Differentiation Medium and returned to the culture flask in order to save non-adherent or loosely adherent cells. The cells were then incubated at 37° C. for 2 days. (2p) Also on Day 4, 90% differentiation medium for the DCs were removed from the 6-well plate, and 90% fresh differentiation medium were added. The cells were treated with 3, 1, 0.3, 0.1, 0.01 and 0 μM plinabulin as stated above in (2m) (Study Arm #1). After another 2 days incubation, the dendritic cell maturation was evaluated by FACS for CD40, CD80, MHCII and CD86. The rest cells continued without treatment to steps (4a)-(4d) below for MLR assay. […]

[1] = treated during differentiation or maturation

`CC(C)(C)c1[nH]cnc1/C=c1\[nH]c(=O)/c(=C/c2ccccc2)[nH]c1=O` [Plinabulin, (3Z,6Z)-3-Benzylidene-6-{[5-(2-methyl-2-propanyl)-1H-imidazol-4-yl]methylene}-2,5-piperazinedione] was tested, and the “CD86 expression on DCs” value (cells treated during DC maturation (Study Arm #A2)) was “increased CD86 expression on DCs”, the “CD86 expression on DCs” value (cells treated during differentiation from CD14 cells (Study Arm #A1)) was “increased CD86 expression on DCs” and the “CD40 expression on DCs” value [1] was “no discernible increase”. For the same molecule, the “CD80 expression on DCs” value [1] was “no discernible increase” and the “MHCII expression on DCs” value [1] was “no discernible increase”.
